Common to all, as to format: binding
Test [1] has as its target T1, BTN3A1 and BTN2A1 B30.2 domains (Homo sapiens, UniProt O00481+Q7KYR7).
T1 construct: BTN2A1 B30.2 in pET28a, Ni-NTA and DEAE; BTN3A1 B30.2 prepared as VpBTN3 B30.2; printed PDB ids are of BTN3A1 B30.2 only
The test is described as follows: ITC, DMASPP titrated into mixture of BTN2A1 and BTN3A1 B30.[…] (first titration).

In test [2] the target is T2, VpBTN2 B30.2 and full-length VpBTN3 B30.2 domain (Vicugna pacos, UniProt A0A345DF50+A0A6J0B3M7).
T2 construct: gene Btn3; E. coli
As to the kind of experiment: ITC, VpBTN2 B30.[…] titrated into preformed full-length VpBTN3 B30.2-DMASPP complex (second titration). Particulars: 25 °C, 25 mM Hepes pH 7.5, 150 mM NaCl; molecular glue; protein-protein KD in presence of DMASPP.

The target in test [3] is T3, VpBTN2 B30.2 and VpBTN3 B30.2 ΔC domains (Vicugna pacos, UniProt A0A345DF50+A0A6J0B3M7).
T3 construct: gene Btn3; mixture of VpBTN2 B30.2 (residues 311-535) and VpBTN3 B30.2 ΔC (residues 323-513), mixed 2:1; E. coli BL21(DE3), His tags removed by TEV; VpBTN2 site R475, T508, V509
As to the kind of experiment: ITC, DMASPP titrated into mixture of VpBTN2 and VpBTN3 B30.[…] ΔC (first titration).

The target in the next test is T4, VpBTN3 B30.2 ΔC (Vicugna pacos, UniProt A0A345DF50).
T4 construct: gene Btn3; intracellular B30.2 domain, residues 323-513, C-terminal loop truncated; pET32a, E. coli BL21(DE3); N-terminal His tag removed by TEV; pocket H381, H408, W421, K423, R442, R448, R499
The test is described as follows: ITC; crystal structure.

Test [4] addresses T1, BTN3A1 and BTN2A1 B30.2 domains. The test is described as follows: ITC, second titration (BTN2A1 B30.[…] into BTN3A1 B30.2-DMASPP complex). Particulars: 25 °C, 25 mM Hepes pH 7.5, 150 mM NaCl; molecular glue; protein-protein KD in presence of DMASPP.
Test [5] deals with T3, VpBTN2 B30.2 and VpBTN3 B30.2 ΔC domains. As to the kind of experiment: ITC, VpBTN2 B30.[…] titrated into preformed VpBTN3 B30.[…] ΔC-DMASPP complex (second titration). The settings on record: 25 °C, 25 mM Hepes pH 7.5, 150 mM NaCl; molecular glue; protein-protein KD in presence of DMASPP.

T1 sequence (O00481 328-513): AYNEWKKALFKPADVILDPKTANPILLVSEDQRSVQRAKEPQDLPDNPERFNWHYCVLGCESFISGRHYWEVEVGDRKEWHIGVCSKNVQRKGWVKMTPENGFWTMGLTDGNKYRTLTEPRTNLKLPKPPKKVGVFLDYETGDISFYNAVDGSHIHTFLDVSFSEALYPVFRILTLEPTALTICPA
T1 sequence (Q7KYR7 310-506 limits assumed): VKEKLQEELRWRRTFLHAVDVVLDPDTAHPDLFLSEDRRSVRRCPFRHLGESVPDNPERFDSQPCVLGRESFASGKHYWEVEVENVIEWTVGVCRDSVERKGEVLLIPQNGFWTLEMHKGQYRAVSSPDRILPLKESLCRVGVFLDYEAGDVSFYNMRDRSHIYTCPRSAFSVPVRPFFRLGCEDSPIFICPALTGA
T3 sequence (A0A345DF50 323-513, stated change not applied): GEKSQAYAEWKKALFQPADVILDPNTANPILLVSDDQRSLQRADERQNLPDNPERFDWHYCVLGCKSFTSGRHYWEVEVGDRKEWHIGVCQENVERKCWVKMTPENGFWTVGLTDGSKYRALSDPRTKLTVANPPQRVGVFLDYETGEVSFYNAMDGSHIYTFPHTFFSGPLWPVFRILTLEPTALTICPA
T3 sequence (A0A6J0B3M7 311-535, stated change not applied): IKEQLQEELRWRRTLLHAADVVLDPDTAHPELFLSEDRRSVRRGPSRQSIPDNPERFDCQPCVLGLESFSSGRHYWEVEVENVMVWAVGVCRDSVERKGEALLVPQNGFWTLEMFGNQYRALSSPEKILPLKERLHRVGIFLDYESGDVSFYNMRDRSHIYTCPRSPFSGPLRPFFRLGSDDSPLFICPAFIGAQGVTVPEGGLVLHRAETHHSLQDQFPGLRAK
T2 sequence (A0A345DF50 323-557 limits assumed): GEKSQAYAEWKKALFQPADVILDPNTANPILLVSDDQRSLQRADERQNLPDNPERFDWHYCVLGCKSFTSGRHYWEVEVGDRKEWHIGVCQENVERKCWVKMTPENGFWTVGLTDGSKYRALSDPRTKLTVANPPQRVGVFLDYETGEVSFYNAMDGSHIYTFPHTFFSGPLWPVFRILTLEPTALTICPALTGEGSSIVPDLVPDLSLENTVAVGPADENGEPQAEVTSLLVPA
T2 sequence (A0A6J0B3M7 311-535): as the sequence (A0A6J0B3M7 311-535, stated change not applied) above
T4 sequence (A0A345DF50 323-513, stated change not applied): as the sequence (A0A345DF50 323-513, stated change not applied) above

On to `CC(C)=CCSP(=O)(O)OP(=O)(O)O` [DMASPP], for which the Kd came to 8.19 µM in test [1], 4.34 µM in test [3] and 44.7 µM at VpBTN3 B30.2 ΔC. Moreover, the KD in test [2] is 15.2 µM; in test [4], 18.8 µM; in test [5], 22.8 µM.

(Values after publication PMC12152872, “Molecular glue binding behavior of phosphoantigens to alpaca butyrophilins” (The Journal of Biological Chemistry, 2025).)
